# In article PMC9007350, “Aurintricarboxylic acid is a canonical disruptor of the TAZ-TEAD transcriptional complex” (PLoS ONE, 2022):
# System: TC/TEAD transcriptional profile in TC-expressing NIH3T3 cells
# Assay: Bulk RNA-Seq, differential gene expression and GSEA (TC ATA v. TC DMSO)
# Format: cell-based, murine
# Procedure: NIH3T3 and HEK293 cells were obtained from the American Type Tissue Collection (ATCC, Manassas, VA) and cultured in DMEM containing 10% fetal bovine serum and penicillin/streptomycin. A TEAD dual luciferase reporter assay was performed as previously described. Cells were treated with vehicle control or ATA (10 μM) for 48 h before measuring the luciferase activity or processing the samples for RNA extraction. Each experiment was repeated at least 2-3 times. NIH3T3 cells were used. The extracted RNA (RNeasy Mini, Qiagen) from treated cells was either used for qPCR measurements or sent for bulk RNA-Seq. Sequencing runs were performed on an Illumina HiSeq 4000 sequencer (Genewiz). Subsequent bioinformatics analysis was performed in the Galaxy Project platform. Paired end reads were aligned to the murine genome ([…]2 [27]. Raw count files were generated with featureCounts using a corresponding GTF reference. Differential gene expression analysis was performed with DESeq2 [29]. Transcripts were considered to be differentially expressed if the false discovery rate < 0.05 and Log2FC > 2. When performing differential gene expression for GSEA analysis, the Limma package was used (<5 CPM filtering) with t-scores used for rank statistics. GSEA plots and statistics were generated with FGSEA with custom gene sets. Raw sequencing reads and processed files have been deposited in the GEO repository (data will be uploaded upon manuscript acceptance). The Universal Probe Library probes (Roche) and the associated primer sequences for the qPCR targets are listed below: […]
structure (smiles),measurement,setting,value
"O=C(O)C1=CC(=C(c2ccc(O)c(C(=O)O)c2)c2ccc(O)c(C(=O)O)c2)C=CC1=O [ATA, aurintricarboxylic acid]","Log2 Fold Change, Pkig (ENSMUSG00000035268)",,0.2955
same,GSEA normalized enrichment score (NES) for the 248 TC-upregulated genes,"ATA-treated vs vehicle, TC-expressing NIH3T3, 10 μM, 48 h, P = 0.0036",-2.027
same,"Log2 Fold Change, Cep83os (ENSMUSG00000097164)","TC ATA v. TC DMSO, RNA-Seq differential gene expression, gene Cep83os",0.5451
same,"Log2 Fold Change, P3h1 (ENSMUSG00000028641)","TC ATA v. TC DMSO, RNA-Seq differential gene expression, gene P3h1",0.1936
same,"Log2 Fold Change, Per1 (ENSMUSG00000020893)","TC ATA v. TC DMSO, RNA-Seq differential gene expression, gene Per1",0.3113
same,"Log2 Fold Change, Spn (ENSMUSG00000051457)","TC ATA v. TC DMSO, RNA-Seq differential gene expression, gene Spn",0.7001
same,"Log2 Fold Change, Wnt9a (ENSMUSG00000000126)","TC ATA v. TC DMSO, RNA-Seq differential gene expression, gene Wnt9a",-0.2847
same,Log2 Fold Change,"gene AW551984, TC ATA v. TC DMSO",0.7046
same,Log2 Fold Change,"gene Abcd2, TC ATA v. TC DMSO",0.775
same,Log2 Fold Change,"gene Adgra2, TC ATA v. TC DMSO",-0.4459
same,Log2 Fold Change,"gene Adgrl2, TC ATA v. TC DMSO",0.4171
same,Log2 Fold Change,"gene Angpt2, TC ATA v. TC DMSO",1.066
same,Log2 Fold Change,"gene Angptl2, TC ATA v. TC DMSO",-0.3301
same,Log2 Fold Change,"gene Asb4, TC ATA v. TC DMSO",0.7498
same,Log2 Fold Change,"gene Asic1, TC ATA v. TC DMSO",0.4827
same,Log2 Fold Change,"gene Atg9b, TC ATA v. TC DMSO",-1.183
same,Log2 Fold Change,"gene Atp1a2, TC ATA v. TC DMSO",0.776
same,Log2 Fold Change,"gene Atp1b1, TC ATA v. TC DMSO",0.4541
same,Log2 Fold Change,"gene Cacng7, TC ATA v. TC DMSO",0.4229
same,Log2 Fold Change,"gene Cbr2, TC ATA v. TC DMSO",1.297
same,Log2 Fold Change,"gene Ccdc80, TC ATA v. TC DMSO",0.4999
same,Log2 Fold Change,"gene Cd24a, TC ATA v. TC DMSO",0.8435
same,Log2 Fold Change,"gene Cd81, TC ATA v. TC DMSO",0.3883
same,Log2 Fold Change,"gene Chrnb1, TC ATA v. TC DMSO",-0.628
same,Log2 Fold Change,"gene Ckmt2, TC ATA v. TC DMSO",0.9415
same,Log2 Fold Change,"gene Clu, TC ATA v. TC DMSO",0.6162
same,Log2 Fold Change,"gene Col4a6, TC ATA v. TC DMSO",0.4089
same,Log2 Fold Change,"gene Coq8a, TC ATA v. TC DMSO",0.862
same,Log2 Fold Change,"gene Creg1, TC ATA v. TC DMSO",0.425
same,Log2 Fold Change,"gene Csrp2, TC ATA v. TC DMSO",-0.43
same,Log2 Fold Change,"gene Cth, TC ATA v. TC DMSO",-0.3812
same,Log2 Fold Change,"gene Dhrs3, TC ATA v. TC DMSO",0.4703
same,Log2 Fold Change,"gene Dlk1, TC ATA v. TC DMSO",0.4509
same,Log2 Fold Change,"gene Dmpk, TC ATA v. TC DMSO",0.6567
same,Log2 Fold Change,"gene Dpep1, TC ATA v. TC DMSO",0.7304
same,Log2 Fold Change,"gene Epha4, TC ATA v. TC DMSO",0.8248
same,Log2 Fold Change,"gene Ercc1, TC ATA v. TC DMSO",-0.7217
same,Log2 Fold Change,"gene Errfi1, TC ATA v. TC DMSO",-0.4719
same,Log2 Fold Change,"gene Fabp3, TC ATA v. TC DMSO",1.14
same,Log2 Fold Change,"gene Fam13c, TC ATA v. TC DMSO",0.6886
same,Log2 Fold Change,"gene Fam110c, TC ATA v. TC DMSO",-0.7995
same,Log2 Fold Change,"gene Fam114a1, TC ATA v. TC DMSO",0.3512
same,Log2 Fold Change,"gene Fgf7, TC ATA v. TC DMSO",0.4417
same,Log2 Fold Change,"gene Fn1, TC ATA v. TC DMSO",0.5505
same,Log2 Fold Change,"gene Galnt15, TC ATA v. TC DMSO",1.35
same,Log2 Fold Change,"gene Gas1, TC ATA v. TC DMSO",0.4145
same,Log2 Fold Change,"gene Ggct, TC ATA v. TC DMSO",-0.7955
same,Log2 Fold Change,"gene Gm49774, TC ATA v. TC DMSO",-0.6084
same,Log2 Fold Change,"gene Gse1, TC ATA v. TC DMSO",0.7002
same,Log2 Fold Change,"gene Gsta3, TC ATA v. TC DMSO",0.7075
same,Log2 Fold Change,"gene Gstm1, TC ATA v. TC DMSO",0.6142
same,Log2 Fold Change,"gene Hivep3, TC ATA v. TC DMSO",0.5196
same,Log2 Fold Change,"gene Hmga1b, TC ATA v. TC DMSO",-0.4737
same,Log2 Fold Change,"gene Htra1, TC ATA v. TC DMSO",-0.7041
same,Log2 Fold Change,"gene Id1, TC ATA v. TC DMSO",1.021
same,Log2 Fold Change,"gene Id3, TC ATA v. TC DMSO",0.8267
same,Log2 Fold Change,"gene Igfbp4, TC ATA v. TC DMSO",0.6017
same,Log2 Fold Change,"gene Il1r1, TC ATA v. TC DMSO",0.3663
same,Log2 Fold Change,"gene Il11ra1, TC ATA v. TC DMSO",0.412
same,Log2 Fold Change,"gene Il17rd, TC ATA v. TC DMSO",0.6209
same,Log2 Fold Change,"gene Ipo7, TC ATA v. TC DMSO",-0.2967
same,Log2 Fold Change,"gene Lrig1, TC ATA v. TC DMSO",-0.4157
same,Log2 Fold Change,"gene Ltbp2, TC ATA v. TC DMSO",-0.4917
same,Log2 Fold Change,"gene Ly6a, TC ATA v. TC DMSO",1.151
same,Log2 Fold Change,"gene Mgst1, TC ATA v. TC DMSO",1.029
same,Log2 Fold Change,"gene Mocs1, TC ATA v. TC DMSO",0.3748
same,Log2 Fold Change,"gene Mrgprf, TC ATA v. TC DMSO",0.6309
same,Log2 Fold Change,"gene Mybpc1, TC ATA v. TC DMSO",0.8979
same,Log2 Fold Change,"gene Myl3, TC ATA v. TC DMSO",1.696
same,Log2 Fold Change,"gene Myoz2, TC ATA v. TC DMSO",1.5589
same,Log2 Fold Change,"gene Naaa, TC ATA v. TC DMSO",0.4836
same,Log2 Fold Change,"gene Nefm, TC ATA v. TC DMSO",-1.532
same,Log2 Fold Change,"gene Nes, TC ATA v. TC DMSO",-0.5782
same,Log2 Fold Change,"gene Nipal1, TC ATA v. TC DMSO",-0.5524
same,Log2 Fold Change,"gene Nqo1, TC ATA v. TC DMSO",0.5252
same,Log2 Fold Change,"gene Nrcam, TC ATA v. TC DMSO",-1.361
same,Log2 Fold Change,"gene Nrn1, TC ATA v. TC DMSO",0.4579
same,Log2 Fold Change,"gene Nrxn2, TC ATA v. TC DMSO",0.7098
same,Log2 Fold Change,"gene Odc1, TC ATA v. TC DMSO",-0.4352
same,Log2 Fold Change,"gene Optn, TC ATA v. TC DMSO",0.5559
same,Log2 Fold Change,"gene Osmr, TC ATA v. TC DMSO",0.5327
same,Log2 Fold Change,"gene Pcx, TC ATA v. TC DMSO",0.5741
same,Log2 Fold Change,"gene Pdgfrb, TC ATA v. TC DMSO",0.5085
same,Log2 Fold Change,"gene Pdgfrl, TC ATA v. TC DMSO",0.4243
same,Log2 Fold Change,"gene Podnl1, TC ATA v. TC DMSO",-0.4267
same,Log2 Fold Change,"gene Prrx2, TC ATA v. TC DMSO",0.8257
same,Log2 Fold Change,"gene Pvr, TC ATA v. TC DMSO",-0.3787
same,Log2 Fold Change,"gene Rcan2, TC ATA v. TC DMSO",0.6454
same,Log2 Fold Change,"gene Rgs4, TC ATA v. TC DMSO",0.757
same,Log2 Fold Change,"gene Rnf150, TC ATA v. TC DMSO",0.5435
same,Log2 Fold Change,"gene Sema7a, TC ATA v. TC DMSO",-1.826
same,Log2 Fold Change,"gene Serpinb9, TC ATA v. TC DMSO",0.5861
same,Log2 Fold Change,"gene Serpine2, TC ATA v. TC DMSO",0.9636
same,Log2 Fold Change,"gene Setbp1, TC ATA v. TC DMSO",0.5242
same,Log2 Fold Change,"gene Slc45a3, TC ATA v. TC DMSO",0.6918
same,Log2 Fold Change,"gene Smoc2, TC ATA v. TC DMSO",0.9475
same,Log2 Fold Change,"gene Ssbp2, TC ATA v. TC DMSO",0.4963
same,Log2 Fold Change,"gene Stard10, TC ATA v. TC DMSO",0.7192
same,Log2 Fold Change,"gene Sulf2, TC ATA v. TC DMSO",0.5447
same,Log2 Fold Change,"gene Thbs3, TC ATA v. TC DMSO",0.6372
same,Log2 Fold Change,"gene Tmem119, TC ATA v. TC DMSO",0.9507
same,Log2 Fold Change,"gene Tnnt1, TC ATA v. TC DMSO",1.595
same,Log2 Fold Change,"gene Tnxb, TC ATA v. TC DMSO",0.5484
same,Log2 Fold Change,"gene Tpm2, TC ATA v. TC DMSO",0.3178
same,Log2 Fold Change,"gene Trim30a, TC ATA v. TC DMSO",1.18
same,Log2 Fold Change,"gene Trp53inp2, TC ATA v. TC DMSO",0.6286
same,Log2 Fold Change,"gene Zfp503, TC ATA v. TC DMSO",0.4797
